Assay results reported in patent US7399775B2, “β-amyloid protein production/secretion inhibitor” (Daiichi Pharmaceutical Co., Ltd., priority 2001, dated 2008).

SMILES | melting point
CS(=O)(=O)CCCCC(c1cncs1)S(=O)(=O)c1ccc(Cl)cc1 (stereo not drawn) [Example 114, 5-[1-[(4-Chlorophenyl)sulfonyl]-5-(methylsulfonyl)pentyl]thiazole] | 95 to 96 °C
C=COCCOCCC(c1cc(F)ccc1F)S(=O)(=O)c1ccc(Cl)cc1 (stereo not drawn) [Example 34, 2-[1-[(4-Chlorophenyl)sulfonyl]-3-(2-vinyloxyethoxy)propyl]-1,4-difluorobenzene] | 55 to 56 °C
CS(=O)(=O)CCCCC(c1cscn1)S(=O)(=O)c1ccc(Cl)cc1 (stereo not drawn) [Example 112, 4-[1-(4-Chlorophenylsulfonyl)-5-(methylsulfonyl)pentyl]thiazole] | 123 to 125 °C
O=S(=O)(c1ccc(Cl)cc1)C(CCC1CCCC1)c1cc(F)ccc1F (stereo not drawn) [Example 315, 2-[1-(4-Chlorophenylsulfonyl)-3-cyclopentylpropyl]-1,4-difluorobenzene] | 93 to 94 °C
CCNC(=O)N1CCC(c2cc(F)ccc2F)(S(=O)(=O)c2ccc(Cl)cc2)CC1 [Example 272, N-ethyl-4-[(4-chlorophenyl)sulfonyl]-4-(2,5-difluorophenyl)-1-piperidinecarboxamide] | 172 to 174 °C
O=C(O)CCCC(c1cc(F)ccc1F)S(=O)(=O)c1ccc(Cl)cc1 (stereo not drawn) [Example 202, 5-[(4-chlorophenyl)sulfonyl]-5-(2,5-difluorophenyl)-1-valeric Acid] | 151 to 152 °C
O=S(=O)(c1ccc(Cl)cc1)C(Cc1ccccn1)c1cc(F)ccc1F (stereo not drawn) [Example 218, 2-[2-[(4-Chlorophenyl)sulfonyl]-2-(2,5-difluorophenyl)ethyl]pyridine] | 105 to 107 °C
COc1ccc(C(CCCCS(C)(=O)=O)S(=O)(=O)c2ccc(Cl)cc2)cc1 (stereo not drawn) [Example 85, 1-[1-(4-Chlorophenylsulfonyl)-5-(methylsulfonyl)pentyl]-4-methoxybenzene] | 136 to 138 °C
O=S(=O)(c1ccc(Cl)cc1)C1(c2cc(F)ccc2F)CCCC1 [Example 30, 2-[1-[(4-Chlorophenyl)sulfonyl]cyclopentyl]-1,4-difluorobenzene] | 153 to 155 °C
O=S(=O)(c1ccc(Cl)cc1)C(c1cc(F)ccc1F)C(O)CCCCO (stereo not drawn) [Example 235, 6-[(4-Chlorophenyl)sulfonyl]-6-(2,5-difluorophenyl)-1,5-hexanediol] | 108 to 109 °C
O=S(=O)(c1ccc(Cl)cc1)C1(c2cccnc2Cl)CCCCCC1 [Example 108, 2-Chloro-3-[1-(4-chlorophenylsulfonyl)cycloheptyl]pyridine] | 168 to 169 °C
C=COCCCCC(c1cc(F)ccc1F)S(=O)(=O)c1ccc(Cl)cc1 (stereo not drawn) [Example 28, 2-[1-[(4-Chlorophenyl)sulfonyl]-5-vinyloxypentyl]-1,4-difluorobenzene] | 54 to 56 °C
CS(=O)(=O)CCCCC(c1ccc(F)c(F)c1)S(=O)(=O)c1ccc(Cl)cc1 (stereo not drawn) [Example 76, 4-[1-(4-Chlorophenylsulfonyl)-5-(methylsulfonyl)pentyl]-1,2-difluorobenzene] | 122 to 124 °C
O=S(=O)(c1ccc(Cl)cc1)C(Sc1ccccc1)c1cc(F)ccc1F (stereo not drawn) [Example 57, 2-[1-[(4-Chlorophenyl)sulfonyl]-1-phenylthio]methyl-1,4-difluorobenzene] | 84 to 85 °C
O=C(O)CC(c1cc(F)ccc1F)S(=O)(=O)c1ccc(Cl)cc1 (stereo not drawn) [Example 62, 3-[(4-Chlorophenyl)sulfonyl]-3-(2,5-difluorophenyl)propionic Acid] | 152 to 153 °C
CN1CCC(c2cc(F)ccc2F)(S(=O)(=O)c2ccc(Cl)cc2)CC1 [Example 261, 4-[(4-Chlorophenyl)sulfonyl]-4-(2,5-difluorophenyl)-1-methylpiperidine] | 172 to 175 °C
O=S(=O)(c1ccc(Cl)cc1)C(Cc1cccnc1)c1cc(F)ccc1F (stereo not drawn) [Example 219, 3-[2-[(4-Chlorophenyl)sulfonyl]-2-(2,5-difluorophenyl)ethyl]pyridine] | 162 to 163 °C
O=C(CC(c1cc(F)ccc1F)S(=O)(=O)c1ccc(Cl)cc1)OCc1ccccc1 (stereo not drawn) [Example 59, Benzyl 3-(4-chlorophenylsulfonyl)-3-(2,5-difluorophenyl)propionate] | 127 to 128 °C
O=C(c1ccccc1)C(c1cc(F)ccc1F)S(=O)(=O)c1ccc(Cl)cc1 (stereo not drawn) [Example 8, 2-[(4-Chlorophenyl)sulfonyl]-2-(2,5-difluorophenyl)-1-phenyl-1-ethanone] | 179.5 to 180 °C
O=S(=O)(CCO)CCC(c1cc(F)ccc1F)S(=O)(=O)c1ccc(Cl)cc1 (stereo not drawn) [Example 255, 2-[3-[(4-Chlorophenyl)sulfonyl]-3-(2,5-difluorophenyl)propylsulfonyl]ethanol] | 111 to 113 °C
O=S(=O)(c1ccc(Cl)cc1)C1(c2nnn(Cc3ccccc3)n2)CCCCC1 [Example 197, 2-Benzyl-5-[1-(4-chlorobenzenesulfonyl)cyclohexyl]-2H-tetrazole] | 133 to 134 °C

SMILES | melting point
Cc1cccc(CCC(c2cc(F)ccc2F)S(=O)(=O)c2ccc(Cl)cc2)c1 (stereo not drawn) [Example 306, 2-[1-(4-Chlorophenylsulfonyl)-3-(3-methylphenyl)propyl]-1,4-difluorobenzene] | 87 to 88 °C
O=S(=O)(c1ccc(Cl)cc1)C(CCc1ccc(Cl)cc1)c1cc(F)ccc1F (stereo not drawn) [Example 310, 2-[3-(4-Chlorophenyl)-1-(4-chlorophenylsulfonyl)propyl]-1,4-difluorobenzene] | 124 to 126 °C
O=S(=O)(c1ccc(Cl)cc1)C(CCCCc1ccccc1)c1cc(F)ccc1F (stereo not drawn) [Example 313, 2-[1-(4-Chlorophenylsulfonyl)-5-phenylpentyl]-1,4-difluorobenzene] | 88 to 90 °C
CCCCCCC(c1cc(F)ccc1F)S(=O)(=O)c1ccc(Cl)cc1 (stereo not drawn) [Example 323, 2-[1-(4-Chlorophenylsulfonyl)heptyl]-1,4-difluorobenzene] | 77 to 78 °C
Cc1ccc(S(=O)(=O)NCC(=O)NCc2ccc(C(c3cc(F)ccc3F)S(=O)(=O)c3ccc(Cl)cc3)nc2)cc1 (stereo not drawn) [Example 358, N-[[6-[(4-Chlorophenylsulfonyl)(2,5-difluorophenyl)methyl]pyridin-3-yl]methyl]-2-(4-methylphenylsulfonylamino)acetamide] | 217 to 218 °C
O=C(O)CCC(c1cc(F)ccc1F)S(=O)(=O)c1ccc(Cl)cc1 (stereo not drawn) [Example 200, 4-[(4-Chlorophenyl)sulfonyl]-4-(2,5-difluorophenyl)butyric Acid] | 157 to 158 °C
O=S(=O)(c1ccc(Cl)cc1)C(c1cc(F)ccc1F)C(O)CCCCO (stereo not drawn) [Example 236, 6-[(4-Chlorophenyl)sulfonyl]-6-(2,5-difluorophenyl)-1,5-hexanediol] | 105 to 107 °C
O=S(=O)(c1ccc(Cl)cc1)C(c1ccc(CN2CCOCC2)cn1)c1cc(F)ccc1F (stereo not drawn) [Example 337, 4-[[6-[(4-Chlorophenylsulfonyl)-(2,5-difluorophenyl)methyl]pyridin-3-yl]methyl]morpholine] | 120 to 121 °C
O=S(=O)(c1ccc(Cl)cc1)C(Cc1ccccc1CO)c1cc(F)ccc1F (stereo not drawn) [Example 277, [2-[2-[(4-Chlorophenyl)sulfonyl]-2-(2,5-difluorophenyl)ethyl]phenyl]methanol] | 107 to 108 °C
O=S(=O)(c1ccc(Cl)cc1)C(c1ccc[n+]([O-])c1)c1cc(F)ccc1F (stereo not drawn) [Example 339, 3-[(4-Chlorophenylsulfonyl)-(2,5-difluorophenyl)methyl]pyridin-N-oxide] | 183 to 184 °C
Cc1ccc(C(c2cc(F)ccc2F)S(=O)(=O)c2ccc(Cl)cc2)nc1 (stereo not drawn) [Example 137, 2-[[(4-Chlorophenyl)sulfonyl]-(2,5-difluorophenyl)methyl]-5-methylpyridine] | 159 to 160 °C
O=S(=O)(c1ccc(Cl)cc1)C(C/C=C/CO)c1cc(F)ccc1F (stereo not drawn) [Example 248, (E)-5-[(4-Chlorophenyl)sulfonyl]-5-(2,5-difluorophenyl)-2-penten-1-ol] | 108 to 109 °C
O=S(=O)(c1ccc(Cl)cc1)C(CCc1ccc(F)cc1)c1cc(F)ccc1F (stereo not drawn) [Example 309, 2-[1-(4-Chlorophenylsulfonyl)-3-(4-fluorophenyl)propyl]-1,4-difluorobenzene] | 131 to 132 °C
CC(C)(C)OC(=O)N1CCC(c2cc(F)ccc2F)(S(=O)(=O)c2ccc(Cl)cc2)CC1 [Example 259, t-Butyl 4-[(4-chlorophenyl)sulfonyl]-4-(2,5-difluorophenyl)-1-piperidinecarboxylate] | 101 to 106 °C
O=S(=O)(c1ccc(Cl)cc1)C(c1ccncc1)C1CCOCC1 (stereo not drawn) [Example 122, 4-[(4-Chlorophenylsulfonyl)(tetrahydropyran-4-yl)methyl]pyridine] | 208 to 209 °C
O=C(CCCCCC(c1cc(F)ccc1F)S(=O)(=O)c1ccc(Cl)cc1)N1CCCC1 (stereo not drawn) [Example 206, 7-[(4-Chlorophenyl)sulfonyl]-7-(2,5-difluorophenyl)-1-(1-pyrrolildinyl)-1-heptanone] | 106 °C
Fc1ccc(F)c(C(Sc2ccc(Cl)cc2)c2cc(Cl)ncc2Cl)c1 (stereo not drawn) [Example 342, 2,5-Dichloro-4-[(4-chlorophenylthio)-(2,5-difluorophenyl)methyl]pyridine] | 128 to 129 °C
CS(=O)(=O)NCCCC(c1cc(F)ccc1F)S(=O)(=O)c1ccc(Cl)cc1 (stereo not drawn) [Example 230, N-[4-[(4-Chlorophenyl)sulfonyl]-4-(2,5-difluorophenyl)butyl]methanesulfonamide] | 128 °C
CS(=O)(=O)CCCCC(c1ccc2ccccc2c1)S(=O)(=O)c1ccc(Cl)cc1 (stereo not drawn) [Example 67, 2-[1-[(4-Chlorophenyl)sulfonyl]-5-(methylsulfonyl)pentyl]naphthalene] | 146 to 147 °C
COc1ccc(-n2ccnc2C(c2cc(F)ccc2F)S(=O)(=O)c2ccc(Cl)cc2)cc1 (stereo not drawn) [Example 153, 2-[[(4-Chlorophenyl)sulfonyl]-(2,5-difluorophenyl)methyl]-1-(4-methoxyphenyl)-1H-imidazole] | 150 to 151 °C
Cc1ccc(CCC(c2cc(F)ccc2F)S(=O)(=O)c2ccc(Cl)cc2)cc1 (stereo not drawn) [Example 307, 2-[1-(4-Chlorophenylsulfonyl)-3-(4-methylphenyl)propyl]-1,4-difluorobenzene] | 82 to 84 °C
